Test results: the NIST ThermoML archive (doi:10.1016/j.jct.2007.05.011)

Experiment: xn = mol fraction of the nth substance listed
Settings: 101 kPa, Liquid; for mass density: Vibrating tube method

NCCO.O=CO [2-hydroxyethylammonium formate] + CCO
Settings	mass density [kg/m3]	speed of sound [m/s]
288.15 K, x2 = 0	1183.57	1733.9
288.15 K, x2 = 0.058	1172.99	1741.5
288.15 K, x2 = 0.098	1161.05	1723
288.15 K, x2 = 0.193	1135.72	1681.5
288.15 K, x2 = 0.296	1110.04	1639
288.15 K, x2 = 0.399	1079.51	1587.5
288.15 K, x2 = 0.5	1044.58	1529.7
288.15 K, x2 = 0.598	1006.57	1468.7
288.15 K, x2 = 0.701	963.374	1402.4
288.15 K, x2 = 0.799	914.502	1333.5
288.15 K, x2 = 0.9	859.222	1261.8
288.15 K, x2 = 0.95	828.585	1223.4
290.65 K, x2 = 0	1181.81	1727.4
290.65 K, x2 = 0.058	1171.33	1736.2
290.65 K, x2 = 0.098	1159.38	1717.6
290.65 K, x2 = 0.193	1134.02	1675.9
290.65 K, x2 = 0.296	1108.32	1633.2
290.65 K, x2 = 0.399	1077.76	1581.4
290.65 K, x2 = 0.5	1042.78	1523.3
290.65 K, x2 = 0.598	1004.72	1461.9
290.65 K, x2 = 0.701	961.474	1395.3
290.65 K, x2 = 0.799	912.536	1326
290.65 K, x2 = 0.9	857.183	1253.7
290.65 K, x2 = 0.95	826.503	1215
293.15 K, x2 = 0	1180.04	1721.3
293.15 K, x2 = 0.058	1169.68	1730.9
293.15 K, x2 = 0.098	1157.72	1712.2
293.15 K, x2 = 0.193	1132.33	1670.3
293.15 K, x2 = 0.296	1106.6	1627.4
293.15 K, x2 = 0.399	1076	1575.3
293.15 K, x2 = 0.5	1040.98	1517
293.15 K, x2 = 0.598	1002.88	1455.1
293.15 K, x2 = 0.701	959.571	1388.2
293.15 K, x2 = 0.799	910.569	1318.5
293.15 K, x2 = 0.9	855.141	1245.7
293.15 K, x2 = 0.95	824.416	1206.8
295.65 K, x2 = 0	1178.27	1715.1
295.65 K, x2 = 0.058	1168.03	1725.6
295.65 K, x2 = 0.098	1156.05	1706.8
295.65 K, x2 = 0.193	1130.64	1664.8
295.65 K, x2 = 0.296	1104.87	1621.7
295.65 K, x2 = 0.399	1074.24	1569.2
295.65 K, x2 = 0.5	1039.18	1510.6
295.65 K, x2 = 0.598	1001.03	1448.4
295.65 K, x2 = 0.701	957.67	1381.1
295.65 K, x2 = 0.799	908.602	1311
295.65 K, x2 = 0.9	853.093	1237.8
295.65 K, x2 = 0.95	822.326	1198.5
298.15 K, x2 = 0	1176.49	1709
298.15 K, x2 = 0.058	1166.37	1720.4
298.15 K, x2 = 0.098	1154.38	1701.5
298.15 K, x2 = 0.193	1128.94	1659.3
298.15 K, x2 = 0.296	1103.15	1615.9
298.15 K, x2 = 0.399	1072.49	1563.2
298.15 K, x2 = 0.5	1037.38	1504.3
298.15 K, x2 = 0.598	999.182	1441.7
298.15 K, x2 = 0.701	955.767	1374.1
298.15 K, x2 = 0.799	906.63	1303.6
298.15 K, x2 = 0.9	851.045	1229.8
298.15 K, x2 = 0.95	820.231	1190.2
300.65 K, x2 = 0	1174.71	1702.9
300.65 K, x2 = 0.058	1164.71	1715.2
300.65 K, x2 = 0.098	1152.72	1696.1
300.65 K, x2 = 0.193	1127.25	1653.7
300.65 K, x2 = 0.296	1101.44	1610.2
300.65 K, x2 = 0.399	1070.73	1557.2
300.65 K, x2 = 0.5	1035.58	1498
300.65 K, x2 = 0.598	997.335	1435.1
300.65 K, x2 = 0.701	953.861	1367
300.65 K, x2 = 0.799	904.657	1296.1
300.65 K, x2 = 0.9	848.99	1221.9
300.65 K, x2 = 0.95	818.13	1182
303.15 K, x2 = 0	1172.94	1696.8
303.15 K, x2 = 0.058	1163.06	1709.9
303.15 K, x2 = 0.098	1151.05	1690.8
303.15 K, x2 = 0.193	1125.56	1648.2
303.15 K, x2 = 0.296	1099.72	1604.4
303.15 K, x2 = 0.399	1068.98	1551.2
303.15 K, x2 = 0.5	1033.79	1491.7
303.15 K, x2 = 0.598	995.485	1428.4
303.15 K, x2 = 0.701	951.952	1360
303.15 K, x2 = 0.799	902.677	1288.7
303.15 K, x2 = 0.9	846.93	1214
303.15 K, x2 = 0.95	816.023	1173.8
305.65 K, x2 = 0	1171.16	–
305.65 K, x2 = 0.058	1161.41	–
305.65 K, x2 = 0.098	1149.39	–
305.65 K, x2 = 0.193	1123.87	–
305.65 K, x2 = 0.296	1098	–
305.65 K, x2 = 0.399	1067.22	–
305.65 K, x2 = 0.5	1031.98	–
305.65 K, x2 = 0.598	993.634	–
305.65 K, x2 = 0.701	950.042	–
305.65 K, x2 = 0.799	900.694	–
305.65 K, x2 = 0.9	844.863	–
305.65 K, x2 = 0.95	813.907	–
